Tests used:
[1] = target: T1, STAT6 protein (Homo sapiens, UniProt P42226); test: Fluorescence polarization (FP) binding assay, STAT6; conditions: FP competition, 5 nM fluorescein-labeled tracer, 200 nM protein, PBS pH7.4; read-out: Binding STAT6
T1 sequence (P42226 1-847): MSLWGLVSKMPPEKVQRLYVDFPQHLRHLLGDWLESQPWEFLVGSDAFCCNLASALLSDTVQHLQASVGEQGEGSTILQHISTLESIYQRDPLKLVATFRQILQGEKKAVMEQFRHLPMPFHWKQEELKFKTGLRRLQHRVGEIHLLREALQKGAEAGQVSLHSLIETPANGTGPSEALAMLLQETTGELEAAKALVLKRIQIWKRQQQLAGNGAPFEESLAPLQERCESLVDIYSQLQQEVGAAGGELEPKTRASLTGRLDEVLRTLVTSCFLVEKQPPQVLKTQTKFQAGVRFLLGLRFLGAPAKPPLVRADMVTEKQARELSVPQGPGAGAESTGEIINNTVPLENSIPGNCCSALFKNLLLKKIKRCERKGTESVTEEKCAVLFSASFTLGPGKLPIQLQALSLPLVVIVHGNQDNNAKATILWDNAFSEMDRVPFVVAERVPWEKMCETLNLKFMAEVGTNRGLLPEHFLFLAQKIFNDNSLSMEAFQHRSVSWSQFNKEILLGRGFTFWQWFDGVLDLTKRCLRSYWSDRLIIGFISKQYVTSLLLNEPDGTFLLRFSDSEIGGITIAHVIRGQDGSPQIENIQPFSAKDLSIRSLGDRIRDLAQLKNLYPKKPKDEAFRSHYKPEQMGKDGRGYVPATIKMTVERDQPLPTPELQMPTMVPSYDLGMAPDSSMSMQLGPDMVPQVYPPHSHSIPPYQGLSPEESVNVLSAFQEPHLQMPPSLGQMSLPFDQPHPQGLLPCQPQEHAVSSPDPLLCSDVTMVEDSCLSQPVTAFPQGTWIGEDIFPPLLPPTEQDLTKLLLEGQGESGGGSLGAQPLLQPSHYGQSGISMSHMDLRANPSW
Summary of the method: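 5 nM fluorescein tracer + 200 nM STAT protein; PBS pH 7.4, 0.01% BGG, 0.01% Tween-20, 2 mM DTT; shake 15 min, 1 h RT equilibrium; FP read; nonlinear fit for inhibition constants.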

[2] = target: T2, STAT5A (Homo sapiens, UniProt P42229); test: Fluorescence polarization (FP) binding assay, STAT5A; conditions: FP competition, 5 nM fluorescein-labeled tracer, 200 nM protein, PBS pH7.4
T2 sequence (P42229 1-794): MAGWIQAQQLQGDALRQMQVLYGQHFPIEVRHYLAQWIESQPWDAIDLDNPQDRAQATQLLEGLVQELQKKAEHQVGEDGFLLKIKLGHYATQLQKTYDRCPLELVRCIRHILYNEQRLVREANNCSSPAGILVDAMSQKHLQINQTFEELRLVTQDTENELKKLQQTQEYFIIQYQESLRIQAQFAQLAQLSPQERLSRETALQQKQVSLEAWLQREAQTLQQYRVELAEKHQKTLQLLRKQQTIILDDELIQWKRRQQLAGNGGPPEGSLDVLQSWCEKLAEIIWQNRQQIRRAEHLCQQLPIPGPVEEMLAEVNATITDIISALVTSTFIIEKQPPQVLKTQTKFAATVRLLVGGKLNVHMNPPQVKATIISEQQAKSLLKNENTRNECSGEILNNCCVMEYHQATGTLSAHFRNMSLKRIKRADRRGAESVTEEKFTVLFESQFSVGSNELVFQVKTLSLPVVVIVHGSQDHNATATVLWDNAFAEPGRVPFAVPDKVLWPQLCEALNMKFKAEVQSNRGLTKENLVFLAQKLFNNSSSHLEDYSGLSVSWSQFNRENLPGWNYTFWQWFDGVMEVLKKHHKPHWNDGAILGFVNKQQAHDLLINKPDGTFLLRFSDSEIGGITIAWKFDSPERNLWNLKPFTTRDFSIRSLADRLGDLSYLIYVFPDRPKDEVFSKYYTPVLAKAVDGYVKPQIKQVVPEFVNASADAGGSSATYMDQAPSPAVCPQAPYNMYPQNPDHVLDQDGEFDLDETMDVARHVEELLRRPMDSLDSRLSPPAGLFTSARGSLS
Experimental: Evaluation of the activity of the inhibitors may be accomplished by fluorescence polarization (FP) experiments. A representative general protocol is the following:
Fluorescence polarization (FP) experiments are performed in black round-bottom plates using the CLARIOstar microplate reader. To each well, fluorescein-labeled tracer and STAT5 or STAT6 protein are added in assay buffer. […] The inhibition constants are determined as the concentration of the STAT5 or STAT6 at which 50% of the ligand is bound.
Fluorescence polarization (FP) experiments were performed in 96-well, black round-bottom plates (Microfluor 2, Fisher Scientific) using the CLARIOstar microplate reader (BMG Labtech). To each well, 5 nM of fluoresceinlabeled tracer and 200 nM of STAT5 and/or STAT6 protein were added to a final volume of 100 μl in the assay buffer (PBS pH7.4+0.01% BGG+0.01% Tween-20, 2 mM DTT). The plate was mixed on a shaker for 15 m and incubated at room temperature for 1 h to reach equilibrium. […] All experimental data were analyzed using Prism 8.0 software (GraphPad Software), and the inhibition constants were determined by nonlinear curve fitting as the concentration of the STAT5 and/or STAT6 at which 50% of the ligand is bound.

| SMILES | Ki [1] | Ki [2] |
| --- | --- | --- |
| CC(C)(C)[C@H](NC(=O)/C=C/c1ccc(C(F)(F)P(=O)(O)O)cc1)C(=O)N1CCC[C@H]1C(=O)N(c1ccccc1)c1ccc(I)cc1 [Compound 1, (difluoro(4-((E)-3-(((S)-1-((S)-2-((4-iodophenyl)(phenyl)carbamoyl)pyrrolidin-1-yl)-3,3-dimethyl-1-oxobutan-2-yl)amino)-3-oxoprop-1-en-1-yl)phenyl)methyl)phosphonic acid] | 100 to 1000 nM | > 10000 nM |
| CC(C)(C)[C@H](NC(=O)c1cc2cc(C(F)(F)P(=O)(O)O)ccc2[nH]1)C(=O)N1CCC[C@H]1C(=O)N(c1ccccc1)c1ccc(I)cc1 [Compound 2, (difluoro(2-(((S)-1-((S)-2-((4-iodophenyl)(phenyl)carbamoyl)pyrrolidin-1-yl)-3,3-dimethyl-1-oxobutan-2-yl)carbamoyl)-1H-indol-5-yl)methyl)phosphonic acid] | 100 to 1000 nM | 1000 to 10000 nM |
| CC(=O)N1CC[C@H]2CC[C@@H](C(=O)NC(c3ccccc3)c3ccccc3)N2C(=O)[C@@H](NC(=O)c2cc3cc(C(F)(F)P(=O)(O)O)ccc3[nH]2)C1 [Compound 3, ((2-(((5S,8S,10aR)-3-acetyl-8-(benzhydrylcarbamoyl)-6-oxodecahydropyrrolo[1,2-a][1,5]diazocin-5-yl)carbamoyl)-1H-indol-5-yl)difluoromethyl)phosphonic acid] | 1000 to 10000 nM | > 10000 nM |
| CC(=O)N1CC[C@H]2CC[C@@H](C(=O)NC(c3ccccc3)c3ccccc3)N2C(=O)[C@@H](NC(=O)/C=C/c2ccc(C(F)(F)P(=O)(O)O)cc2)C1 [Compound 5, ((4-((E)-3-(((5S,8S,10aR)-3-acetyl-8-(benzhydrylcarbamoyl)-6-oxodecahydropyrrolo[1,2-a][1,5]diazocin-5-yl)amino)-3-oxoprop-1-en-1-yl)phenyl)difluoromethyl)phosphonic acid] | > 10000 nM | > 10000 nM |
| CC(=O)N1CC[C@H]2CC[C@@H](C(=O)Nc3ccc(I)cc3)N2C(=O)[C@@H](NC(=O)/C=C/c2ccc(C(F)(F)P(=O)(O)O)cc2)C1 [Compound 6, ((4-((E)-3-(((5S,8S,10aR)-3-acetyl-8-((4-iodophenyl)carbamoyl)-6-oxodecahydropyrrolo[1,2-a][1,5]diazocin-5-yl)amino)-3-oxoprop-1-en-1-yl)phenyl)difluoromethyl)phosphonic acid] | 1000 to 10000 nM | > 10000 nM |
| CCC(CC)[C@H](NC(=O)c1cc2cc(C(F)(F)P(=O)(O)O)ccc2s1)C(=O)N1CCC[C@H]1C(=O)N(CCC(=O)N(C)C)c1ccc(-c2nccs2)cc1 [Compound 322, ((2-(((S)-1-((S)-2-((3-(dimethylamino)-3-oxopropyl)(4-(thiazol-2-yl)phenyl)carbamoyl)pyrrolidin-1-yl)-3-ethyl-1-oxopentan-2-yl)carbamoyl)benzo[b]thiophen-5-yl)difluoromethyl)phosphonic acid] |  | 100 to 1000 nM |
| CN(C)C(=O)CCN(C(=O)[C@@H]1CCCN1C(=O)[C@@H](NC(=O)c1cc2cc(C(F)(F)P(=O)(O)O)ccc2s1)C1CCCCC1)c1ccc(-c2nccs2)cc1 [Compound 323, ((2-(((S)-1-cyclohexyl-2-((S)-2-((3-(dimethylamino)-3-oxopropyl)(4-(thiazol-2-yl)phenyl)carbamoyl)pyrrolidin-1-yl)-2-oxoethyl)carbamoyl)benzo[b]thiophen-5-yl)difluoromethyl)phosphonic acid] |  | 1000 to 10000 nM |
| CN(C)C(=O)CCN(C(=O)[C@@H]1CCCN1C(=O)[C@@H](NC(=O)c1cc2cc(C(F)(F)P(=O)(O)O)ccc2s1)c1ccccc1)c1ccc(-c2nccs2)cc1 [Compound 324, ((2-(((S)-2-((S)-2-((3-(dimethylamino)-3-oxopropyl)(4-(thiazol-2-yl)phenyl)carbamoyl)pyrrolidin-1-yl)-2-oxo-1-phenylethyl)carbamoyl)benzo[b]thiophen-5-yl)difluoromethyl)phosphonic acid] |  | 1000 to 10000 nM |
| CN(C)C(=O)CCN(C(=O)[C@@H]1CCCN1C(=O)[C@H](Cc1ccc(F)cc1)NC(=O)c1cc2cc(C(F)(F)P(=O)(O)O)ccc2s1)c1ccc(-c2nccs2)cc1 [Compound 325, ((2-(((S)-1-((S)-2-((3-(dimethylamino)-3-oxopropyl)(4-(thiazol-2-yl)phenyl)carbamoyl)pyrrolidin-1-yl)-3-(4-fluorophenyl)-1-oxopropan-2-yl)carbamoyl)benzo[b]thiophen-5-yl)difluoromethyl)phosphonic acid] |  | 100 to 1000 nM |
| CN(C)C(=O)CCN(C(=O)[C@@H]1CCCN1C(=O)[C@H](Cc1ccc(Br)cc1)NC(=O)c1cc2cc(C(F)(F)P(=O)(O)O)ccc2s1)c1ccc(-c2nccs2)cc1 [Compound 326, ((2-(((S)-3-(4-bromophenyl)-1-((S)-2-((3-(dimethylamino)-3-oxopropyl)(4-(thiazol-2-yl)phenyl)carbamoyl)pyrrolidin-1-yl)-1-oxopropan-2-yl)carbamoyl)benzo[b]thiophen-5-yl)difluoromethyl)phosphonic acid] |  | 1000 to 10000 nM |
| CN(C)C(=O)CCN(C(=O)[C@@H]1CCCN1C(=O)[C@H](Cc1ccc(C(F)(F)F)cc1)NC(=O)c1cc2cc(C(F)(F)P(=O)(O)O)ccc2s1)c1ccc(-c2nccs2)cc1 [Compound 327, ((2-(((S)-1-((S)-2-((3-(dimethylamino)-3-oxopropyl)(4-(thiazol-2-yl)phenyl)carbamoyl)pyrrolidin-1-yl)-1-oxo-3-(4-(trifluoromethyl)phenyl)propan-2-yl)carbamoyl)benzo[b]thiophen-5-yl)difluoromethyl)phosphonic acid] |  | 1000 to 10000 nM |
| CN(C)C(=O)CCN(C(=O)[C@@H]1CCCN1C(=O)[C@H](CCc1ccccc1)NC(=O)c1cc2cc(C(F)(F)P(=O)(O)O)ccc2s1)c1ccc(-c2nccs2)cc1 [Compound 328, ((2-(((S)-1-((S)-2-((3-(dimethylamino)-3-oxopropyl)(4-(thiazol-2-yl)phenyl)carbamoyl)pyrrolidin-1-yl)-1-oxo-4-phenylbutan-2-yl)carbamoyl)benzo[b]thiophen-5-yl)difluoromethyl)phosphonic acid] |  | 100 to 1000 nM |
| CN(C)C(=O)CCN(C(=O)[C@@H]1CCCN1C(=O)[C@H](Cc1ccc2ccccc2c1)NC(=O)c1cc2cc(C(F)(F)P(=O)(O)O)ccc2s1)c1ccc(-c2nccs2)cc1 [Compound 329, ((2-(((S)-1-((S)-2-((3-(dimethylamino)-3-oxopropyl)(4-(thiazol-2-yl)phenyl)carbamoyl)pyrrolidin-1-yl)-3-(naphthalen-2-yl)-1-oxopropan-2-yl)carbamoyl)benzo[b]thiophen-5-yl)difluoromethyl)phosphonic acid] |  | 1000 to 10000 nM |
